Among the data in patent publication US6534522B2, “Subtype-selective NMDA receptor ligands and the use thereof” (Warner-Lambert Company, priority 1995, dated 2003) are IC50 values, retold here.

Where a name gives a salt, the structure may show the parent alone. Read-outs that look alike come from different tables or passages of the source. Bounds are passed on as bounds.

What all share (assay type): cell-based
One assay has as its target NR1A/2A NMDA receptor (Rattus norvegicus, UniProt P35439+Q00959). Kind of assay: Xenopus oocyte expression system, two-electrode voltage clamp, NR1A/2A. An excerpt: (§1) Electrophysiological assays may be utilized to characterize the actions of potential subtype-selective ligands at NMDA receptors expressed in Xenopus oocytes. The ligand may be assayed at the different subunit combinations of cloned rat NMDA receptors corresponding to the four putative NMDA receptor subtypes (Moriyoshi et al., Nature (Lond.) 354:31-37 (1991); Monyer et al., Science (Washington, D.C.) 256:1217-1221 (1992); Kutsuwada et al., Nature (Lond.) 358:36-41 (1992); Sugihara et al., Biochem. Biophys. Res. Comm. 185:826-832 (1992)).
(§2) Using fixed saturating concentrations of agonists (glutamate 100 μM, glycine 1-10 μM depending on subunit combination), the inhibitory potency of a putative subtype-selective ligand may be assayed at the NMDA receptors assembled from NR1A/2A, NR1A/2B, NR1A/2C and NR1A/2D subunit combinations.
(§3) The Xenopus oocyte expression system. Mature female Xenopus laevis were anaesthetized (20-40 min) using 0.15% 3-aminobenzoic acid ethyl ester (MS-222) and 2-4 ovarian lobes were surgically removed. Oocytes at developmental stages IV-VI (Dumont, J. N., J. Morphol. 136:153-180 (1972)), were dissected from the ovary still surrounded by enveloping ovarian tissues. Follicle-enclosed oocytes were micro-injected with 1:1 mixtures of cRNA:NR1A+NR2A, 2B, 2C or 2D; injecting ˜2, 5, or 20 ng of RNA encoding each receptor subunit. NR1A encoding cRNA was injected alone at ˜20 ng. Oocytes were stored in Barth's medium containing (in mM): NaCl, 88; KCl, 1; CaCl2, 0.41; Ca(NO3)2, 0.33; MgSO4, 0.82; NaHCO3, 2.4; HEPES 5; pH 7.4, with 0.1 mg/mL gentamycin sulphate. While oocytes were still surrounded by enveloping ovarian tissues the Barth's medium was supplemented with 0.1% bovine serum. Oocytes were defolliculated 1-2 days following injections by treatment with collagenase (0.5 mg/mL Sigma Type I for 0.5-1 hr) (Miledi and Woodward, J. Physiol. (Lond.) 416:601-621 (1989)) and subsequently stored in serum-free medium.
(§4) Electrical recordings were made using a conventional two-electrode voltage clamp (Dagan TEV-200) over periods ranging between 3-21 days following injection. Oocytes were placed in a 0.1 mL recording chamber continuously perfused (5-15 mL min^−1) with frog Ringer's solution containing (in mM): NaCl, 115; KCl, 2; CaCl2, 1.8; HEPES, 5; pH 7.4. Drugs were applied by bath perfusion. When using the more rapid flow rates, half-times for mid-chamber solution changes were between 2-3 sec, however, exchange rates for drug solutions at the oocyte surface (i.e. beneath the vitelline envelope and among the tangles of microvilli) were probably considerably longer (Woodward et al., Mol. Pharmacol. 41:89-103 (1992)). Zero-Ca^2+/Ba^2+ Ringer had the composition (in mM): NaCl, 115; KCl, 2; BaCl2, 1.8; HEPES, 5; pH 7.4. Intraoocyte injections were made by pneumatic pressure-pulse ejection from micropipettes (Miledi and Parker, J. Physiol. (Lond.) 357:173-183 (1984)). Injection solutions of EGTA (40-400 mM) and BAPTA (50-500 mM) were made up in H2O, pH adjusted to 7.4 with KOH or HCl, and filtered to minimize plugging (Acrodisc-13, […]). Pressure was set between 200-400 kPa. The volume of injections was regulated by adjusting the time of pulses (0.1-1 sec) and was estimated by measuring the diameters of ejected droplets.
(§5) Concentration-inhibition curves were fit with equation 2.
(§6) I/Icontrol=1/(1+([antagonist]/10^−pIC50)^n) Eq. 2
(§7) in which Icontrol is the current evoked by agonists alone, pIC50=−log IC50, […] is the concentration of antagonist that produces half maximal inhibition, and n is the slope factor. For incomplete curves analysis by fitting was unreliable and IC50 values were calculated by simple regression over linear portions of the curves (Origin: Microcal Software).
(§8) Drugs were initially dissolved at concentrations of 10-100 mM in DMSO. Dilutions were then made to generate a series of DMSO stock solutions over the range 10 μM to 100 mM. Working solutions were made by 1000-3000 fold dilution of stocks into Ringer. […]
(In general: In two-electrode clamp one electrode senses voltage and the other passes current.)

For the next assay, the target named is NR1A/2C NMDA receptor (Rattus norvegicus, UniProt P35439+Q00961). Kind of assay: Xenopus oocyte expression system, two-electrode voltage clamp, NR1A/2C.
Chain of NR1A/2C NMDA receptor (Q00961 20-1237, other chains not shown): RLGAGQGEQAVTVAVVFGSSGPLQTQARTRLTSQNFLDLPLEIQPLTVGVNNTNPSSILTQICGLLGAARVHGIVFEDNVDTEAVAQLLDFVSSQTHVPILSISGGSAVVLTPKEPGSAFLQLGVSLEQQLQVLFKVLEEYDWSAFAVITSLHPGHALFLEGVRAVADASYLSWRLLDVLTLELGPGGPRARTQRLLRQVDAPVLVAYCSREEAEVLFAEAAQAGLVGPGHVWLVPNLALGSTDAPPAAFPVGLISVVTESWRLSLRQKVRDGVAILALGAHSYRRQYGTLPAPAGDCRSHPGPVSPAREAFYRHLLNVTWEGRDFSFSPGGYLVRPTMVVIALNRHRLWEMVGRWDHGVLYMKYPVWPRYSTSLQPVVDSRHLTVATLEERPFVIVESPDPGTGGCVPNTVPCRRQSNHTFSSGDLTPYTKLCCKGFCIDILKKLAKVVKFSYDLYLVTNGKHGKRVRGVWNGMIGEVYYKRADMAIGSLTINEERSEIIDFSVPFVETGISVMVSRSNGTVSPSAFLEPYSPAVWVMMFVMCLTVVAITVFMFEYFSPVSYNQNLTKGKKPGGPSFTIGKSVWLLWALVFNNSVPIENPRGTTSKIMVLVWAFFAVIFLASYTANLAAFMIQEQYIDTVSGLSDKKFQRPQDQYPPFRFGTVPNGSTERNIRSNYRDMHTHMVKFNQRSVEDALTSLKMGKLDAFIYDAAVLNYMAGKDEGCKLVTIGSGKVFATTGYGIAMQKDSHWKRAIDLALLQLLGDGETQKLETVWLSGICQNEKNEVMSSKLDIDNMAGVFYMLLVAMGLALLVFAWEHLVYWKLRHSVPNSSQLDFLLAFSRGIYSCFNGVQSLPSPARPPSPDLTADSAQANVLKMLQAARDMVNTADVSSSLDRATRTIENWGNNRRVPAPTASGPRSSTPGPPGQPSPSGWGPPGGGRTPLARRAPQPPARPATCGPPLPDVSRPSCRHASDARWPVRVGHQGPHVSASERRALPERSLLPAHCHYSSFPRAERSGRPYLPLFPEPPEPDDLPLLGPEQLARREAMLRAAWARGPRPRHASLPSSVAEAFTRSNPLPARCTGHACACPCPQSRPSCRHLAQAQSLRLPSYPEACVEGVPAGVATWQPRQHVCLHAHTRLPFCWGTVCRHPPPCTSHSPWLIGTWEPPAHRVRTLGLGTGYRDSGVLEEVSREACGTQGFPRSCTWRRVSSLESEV
Source text: as §1, §2, §3, §4, §5, §6, §7, §8

For another assay, the target named is NR1A/2B NMDA receptor (Rattus norvegicus, UniProt P35439+Q00960). Briefly: Xenopus oocyte expression system, two-electrode voltage clamp, NR1A/2B.
Chain of NR1A/2B NMDA receptor (Q00960 27-1482, other chains not shown): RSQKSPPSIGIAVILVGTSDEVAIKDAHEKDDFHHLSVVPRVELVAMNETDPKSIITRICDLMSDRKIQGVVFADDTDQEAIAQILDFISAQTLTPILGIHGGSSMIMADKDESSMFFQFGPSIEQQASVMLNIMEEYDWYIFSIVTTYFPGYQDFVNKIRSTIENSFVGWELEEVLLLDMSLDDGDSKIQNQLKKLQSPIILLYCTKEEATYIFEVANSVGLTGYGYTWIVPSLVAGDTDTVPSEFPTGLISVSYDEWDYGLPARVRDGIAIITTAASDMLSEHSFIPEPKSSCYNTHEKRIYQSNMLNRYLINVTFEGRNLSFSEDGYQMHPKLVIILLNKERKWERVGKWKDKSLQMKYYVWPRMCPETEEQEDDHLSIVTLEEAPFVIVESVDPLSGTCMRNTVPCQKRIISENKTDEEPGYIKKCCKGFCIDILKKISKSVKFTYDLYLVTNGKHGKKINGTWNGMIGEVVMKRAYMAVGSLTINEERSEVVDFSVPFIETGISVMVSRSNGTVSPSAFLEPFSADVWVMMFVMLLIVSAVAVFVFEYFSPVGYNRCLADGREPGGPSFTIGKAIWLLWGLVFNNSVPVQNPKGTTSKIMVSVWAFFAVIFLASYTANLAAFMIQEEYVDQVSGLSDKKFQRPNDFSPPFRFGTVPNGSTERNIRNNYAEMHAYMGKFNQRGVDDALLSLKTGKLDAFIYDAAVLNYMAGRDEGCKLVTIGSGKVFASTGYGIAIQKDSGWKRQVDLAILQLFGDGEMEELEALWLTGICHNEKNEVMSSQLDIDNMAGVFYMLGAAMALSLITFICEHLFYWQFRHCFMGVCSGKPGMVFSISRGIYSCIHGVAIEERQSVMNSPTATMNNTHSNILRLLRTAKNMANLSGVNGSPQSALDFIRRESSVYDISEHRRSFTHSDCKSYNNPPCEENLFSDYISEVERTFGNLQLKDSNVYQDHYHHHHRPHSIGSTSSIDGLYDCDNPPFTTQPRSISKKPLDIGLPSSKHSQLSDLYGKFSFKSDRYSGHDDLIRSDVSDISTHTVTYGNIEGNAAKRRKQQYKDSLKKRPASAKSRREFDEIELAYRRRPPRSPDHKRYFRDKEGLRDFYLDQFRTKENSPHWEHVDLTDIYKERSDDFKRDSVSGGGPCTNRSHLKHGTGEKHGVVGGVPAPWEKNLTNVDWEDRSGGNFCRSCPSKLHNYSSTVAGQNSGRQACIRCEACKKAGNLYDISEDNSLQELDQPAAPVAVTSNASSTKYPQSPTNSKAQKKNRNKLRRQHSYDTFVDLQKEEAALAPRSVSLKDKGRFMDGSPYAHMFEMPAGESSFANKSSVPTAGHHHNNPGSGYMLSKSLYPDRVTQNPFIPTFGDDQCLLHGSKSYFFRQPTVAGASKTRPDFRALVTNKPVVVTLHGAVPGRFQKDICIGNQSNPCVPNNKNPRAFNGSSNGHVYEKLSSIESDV
Source text: as §1, §2, §3, §4, §5, §6, §7, §8

Where [1] appears, read: cloned NR1A/2A subunits expressed in Xenopus oocytes, inhibition of agonist-evoked membrane current, read-out: 1A/2A IC50.
Setting [2] is: cloned NR1A/2C subunits expressed in Xenopus oocytes, inhibition of agonist-evoked membrane current, read-out: 1A/2C IC50.
The mark [3] stands for this setting: cloned NR1A/2B subunits expressed in Xenopus oocytes, inhibition of agonist-evoked membrane current, read-out: 1A/2B IC50.

Chain of NR1A/2A NMDA receptor (Q00959 20-1464 limits assumed, other chains not shown): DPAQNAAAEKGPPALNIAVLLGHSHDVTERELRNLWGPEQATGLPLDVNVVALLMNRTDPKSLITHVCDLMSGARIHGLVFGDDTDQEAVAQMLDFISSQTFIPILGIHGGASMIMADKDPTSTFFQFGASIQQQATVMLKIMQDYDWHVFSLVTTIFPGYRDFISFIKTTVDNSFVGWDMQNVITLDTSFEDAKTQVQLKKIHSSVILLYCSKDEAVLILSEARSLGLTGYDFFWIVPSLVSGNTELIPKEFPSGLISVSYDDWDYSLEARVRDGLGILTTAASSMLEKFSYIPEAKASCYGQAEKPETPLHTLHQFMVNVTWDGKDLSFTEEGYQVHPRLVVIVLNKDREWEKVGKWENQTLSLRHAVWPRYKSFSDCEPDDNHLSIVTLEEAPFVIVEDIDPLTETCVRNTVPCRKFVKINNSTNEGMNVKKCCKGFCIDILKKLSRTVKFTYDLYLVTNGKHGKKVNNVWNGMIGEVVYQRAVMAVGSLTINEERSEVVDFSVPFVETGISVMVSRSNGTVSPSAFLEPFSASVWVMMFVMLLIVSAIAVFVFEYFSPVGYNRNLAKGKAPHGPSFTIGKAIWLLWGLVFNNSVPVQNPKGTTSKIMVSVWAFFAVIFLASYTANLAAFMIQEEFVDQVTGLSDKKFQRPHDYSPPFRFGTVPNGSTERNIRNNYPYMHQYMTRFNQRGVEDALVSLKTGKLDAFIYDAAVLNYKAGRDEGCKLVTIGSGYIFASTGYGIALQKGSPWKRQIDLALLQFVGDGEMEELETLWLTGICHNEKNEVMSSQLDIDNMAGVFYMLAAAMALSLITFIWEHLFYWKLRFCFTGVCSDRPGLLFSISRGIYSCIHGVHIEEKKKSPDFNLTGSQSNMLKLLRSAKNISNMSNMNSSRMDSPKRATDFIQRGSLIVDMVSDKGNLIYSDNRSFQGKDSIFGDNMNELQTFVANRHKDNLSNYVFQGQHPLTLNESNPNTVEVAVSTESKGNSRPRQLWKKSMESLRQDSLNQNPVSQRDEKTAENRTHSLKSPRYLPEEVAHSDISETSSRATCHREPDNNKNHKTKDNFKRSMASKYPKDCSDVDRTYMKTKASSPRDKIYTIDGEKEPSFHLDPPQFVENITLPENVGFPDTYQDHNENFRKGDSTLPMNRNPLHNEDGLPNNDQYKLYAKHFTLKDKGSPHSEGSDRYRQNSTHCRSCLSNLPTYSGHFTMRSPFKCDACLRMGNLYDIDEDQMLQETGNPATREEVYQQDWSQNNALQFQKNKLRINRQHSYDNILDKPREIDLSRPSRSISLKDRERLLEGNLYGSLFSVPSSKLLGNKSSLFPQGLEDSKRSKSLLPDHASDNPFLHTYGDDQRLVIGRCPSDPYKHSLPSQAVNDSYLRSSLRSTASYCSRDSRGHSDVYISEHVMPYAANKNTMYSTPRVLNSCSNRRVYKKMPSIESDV

On to “1-(2-Phenylethyl)-4-benzylidenepiperidine [Ex. 15]”, for which the IC50 on NR1A/2A NMDA receptor (setting [1]) amounted to 60 µM; on NR1A/2C NMDA receptor (setting [2]), 230 µM; at NR1A/2B NMDA receptor (setting [3]) it was 5.5 µM.
In the same order, the values of `CCCCCCN1CCC(Cc2ccccc2)CC1` [(A), 4-benzyl-1-hexylpiperidine] are greater than 300 µM, greater than 300 µM and 5 µM.
Taken in the same sequence, the figures for `CCCCN1CCC(Cc2ccccc2)CC1` [(B), 4-benzyl-1-butylpiperidine] were greater than 300 µM, greater than 300 µM and 25 µM.
In the same order, the values of `O=C(c1cccc(F)c1)C1CCN(CCCCc2ccccc2)CC1` [(C), 4-(3′-fluorobenzoyl)-1-(4″-phenylbutyl)piperidine] are greater than 300 µM, greater than 300 µM and 10 µM.
In the case of `NC(=O)CCCCN1CCC(Cc2ccccc2)CC1` [Ex. 2, 4-Benzylpiperidylpentamide], the IC50 is greater than 300 µM at NR1A/2A NMDA receptor (setting [1]), greater than 300 µM on NR1A/2C NMDA receptor (setting [2]) and 1.6 µM at NR1A/2B NMDA receptor (setting [3]).
As for `NNC(=O)CCCCN1CCC(Cc2ccccc2)CC1` [Ex. 3, 4-Benzylpiperidylpentahydrazide], the IC50 at NR1A/2A NMDA receptor (setting [1]) is greater than 300 µM; at NR1A/2C NMDA receptor (setting [2]) it was greater than 300 µM; at NR1A/2B NMDA receptor (setting [3]) it was 4 µM.
Regarding `C#CCCN1CCC(Cc2ccccc2)CC1` [Ex. 6, 4-benzyl-1-(3-Butynyl)piperidine], the IC50 at NR1A/2A NMDA receptor (setting [1]) is greater than 300 µM; on NR1A/2C NMDA receptor (setting [2]), greater than 300 µM; on NR1A/2B NMDA receptor (setting [3]) it was 2.3 µM.
For the compound `C#CCCN1CCC(O)(c2ccc(Cl)cc2)CC1` [Ex. 7, 1-(3-Butynyl)-4-(p-chlorphenyl)-4-hydroxypiperidine], the IC50 is greater than 300 µM at NR1A/2A NMDA receptor (setting [1]), greater than 300 µM at NR1A/2C NMDA receptor (setting [2]) and 65 µM on NR1A/2B NMDA receptor (setting [3]).
Regarding `Fc1cccc(C[P+](c2ccccc2)(c2ccccc2)c2ccccc2)c1` [Ex. 8, m-Fluorobenzyltriphenylphosphonium bromide], the results for the IC50 at NR1A/2A NMDA receptor (setting [1]), on NR1A/2C NMDA receptor (setting [2]) and on NR1A/2B NMDA receptor (setting [3]) were greater than 300 µM, greater than 300 µM and 65 µM, respectively.
On to `Fc1cccc(C=C2CCN(Cc3ccccc3)CC2)c1` [Ex. 9, 1-Benzyl-4-(m-fluorobenzylidene)piperidine], for which the IC50 at NR1A/2A NMDA receptor (setting [1]) is 240 µM; at NR1A/2C NMDA receptor (setting [2]), greater than 300 µM; on NR1A/2B NMDA receptor (setting [3]), 14 µM.
Taken in the same sequence, the figures for `O=C(CCCN1CCC(O)CC1)c1ccccc1` [Ex. 13, 4-(4-Hydroxypiperidinyl) butyrophenone] were 80 µM, 140 µM and 53 µM.
In the same order, the values of `OC1(Cc2ccccc2)CCN(CCCc2ccccc2)CC1` [Ex. 16, 4-Benzyl-4-hydroxy-1-(3-phenylpropyl)piperidine] are 20 µM, 80 µM and 17 µM.
As for `c1ccc(OCCN2CCc3ccccc3C2)cc1` [Ex. 18, N-(2-Phenoxyethyl)-1,2,3,4-tetrahydroisoquinoline], the IC50 was 140 µM at NR1A/2A NMDA receptor (setting [1]), greater than 100 µM on NR1A/2C NMDA receptor (setting [2]) and 35 µM on NR1A/2B NMDA receptor (setting [3]).
In the same order, the values of `c1ccc(OCCCN2CCc3ccccc3C2)cc1` [Ex. 19, N-(3-Phenoxypropyl)-1,2,3,4-tetrahydroisoquinoline] are 75 µM, 275 µM and 10 µM.
Taken in the same sequence, the figures for `O=C(c1ccccc1)C1CCN(CCOc2ccccc2)CC1` [Ex. 27, 4-Benzoyl-1-(2-phenoxyethyl)piperidine] were greater than 300 µM, greater than 300 µM and 50 µM.
Taken in the same sequence, the figures for `O=C(Nc1ccc([N+](=O)[O-])cc1)N1CCC(Cc2ccccc2)CC1` [Ex. 30, 1-[2-aza-1-oxo-2-(4-nitrophenyl)ethyl]-4-benzylpiperidine] were 95 µM, greater than 100 µM and 8 µM.
Consider `COC(=O)CCCCN1CCCC(Cc2ccccc2)C1` (stereo not drawn) [Ex. 34, 5-(3-Benzylpiperidinyl)valeric acid methyl ester], for which the IC50 on NR1A/2A NMDA receptor (setting [1]) was greater than 300 µM; at NR1A/2C NMDA receptor (setting [2]), greater than 300 µM; on NR1A/2B NMDA receptor (setting [3]), 240 µM.
Consider `CCOC(=O)CCCN1CCCC(Cc2ccccc2)C1` (stereo not drawn) [Ex. 35, 4-(3-Benzylpiperidinyl)butyric acid ethyl ester], for which the IC50 on NR1A/2A NMDA receptor (setting [1]) was greater than 300 µM; at NR1A/2C NMDA receptor (setting [2]), greater than 300 µM; on NR1A/2B NMDA receptor (setting [3]) it was 150 µM.
With `C=CCN1CCCCC1Cc1ccccc1` (stereo not drawn) [Ex. 38(A), 1-Allyl-2-benzylpiperidine, hydrobromide], the IC50 at NR1A/2A NMDA receptor worked out at 25 µM; on NR1A/2C NMDA receptor, 65 µM; at NR1A/2B NMDA receptor, 72 µM.
Regarding `C=CC[N+]1(CC=C)CCCCC1Cc1ccccc1` (stereo not drawn) [Ex. 38(B), 2-benzyl-l,1-diallylpiperidinium iodide], the IC50 was 28 µM at NR1A/2A NMDA receptor (setting [1]), 50 µM on NR1A/2C NMDA receptor (setting [2]) and 50 µM on NR1A/2B NMDA receptor (setting [3]).
For `CCOC(=O)CCCN1CCC(Cc2ccccc2)CC1` [Ex. 41, 4-(4-Benzylpiperidinyl) butyric acid ethyl ester hydrobromide salt], the IC50 at NR1A/2A NMDA receptor (setting [1]), at NR1A/2C NMDA receptor (setting [2]) and at NR1A/2B NMDA receptor (setting [3]) was greater than 300 µM each time.
For the compound `NCCCN1CCC(Cc2ccccc2)CC1` [Ex. 47, 4-Benzyl-1-(3-aminopropyl) piperidine], the IC50 on NR1A/2A NMDA receptor (setting [1]) is 270 µM; on NR1A/2C NMDA receptor (setting [2]), greater than 300 µM; at NR1A/2B NMDA receptor (setting [3]), 40 µM.
`OCCCCN1CCC(Cc2ccccc2)CC1` [Ex. 86, 4-Benzyl-1-(4-hydroxybutyl)piperidine hydrobromide]: the IC50 is greater than 300 µM on NR1A/2A NMDA receptor (setting [1]), greater than 300 µM on NR1A/2C NMDA receptor (setting [2]) and 12 µM on NR1A/2B NMDA receptor (setting [3]).
With `OCCCN1CCC(O)(Cc2ccccc2)CC1` [Ex. 87, 4-Benzyl-4-hydroxy-1-(3-hydroxypropyl)piperidine], the IC50 at NR1A/2A NMDA receptor (setting [1]) is greater than 300 µM; on NR1A/2C NMDA receptor (setting [2]), greater than 300 µM; at NR1A/2B NMDA receptor (setting [3]), 7 µM.
On to `OCC1CC2CC(Cc3ccccc3)CCN2C1` (stereo not drawn) [Ex. 88, 7-Benzyl-1,2,3,5,6,7,8,9-octahydro-2-(hydroxymethyl)indolizine], for which the IC50 on NR1A/2A NMDA receptor (setting [1]) was greater than 300 µM; on NR1A/2C NMDA receptor (setting [2]), greater than 300 µM; at NR1A/2B NMDA receptor (setting [3]) it was 5 µM.
Regarding `OCCCN1CCC(Cc2ccc(F)cc2)CC1` [Ex. 90, 4-(4-Fluorobenzyl)-1-(3-hydroxypropyl) piperidine hydrobromide], the IC50 on NR1A/2A NMDA receptor (setting [1]) is greater than 300 µM; at NR1A/2C NMDA receptor (setting [2]), greater than 300 µM; on NR1A/2B NMDA receptor (setting [3]), 1.3 µM.
As for `C[C@@H](CO)CN1CCC(Cc2ccc(F)cc2)CC1` [Ex. 92, (R)-4-(4-Fluorobenzyl)-1-(3-hydroxy-2-methylpropyl) piperidine hydrochloride], the IC50 was greater than 300 µM on NR1A/2A NMDA receptor (setting [1]), greater than 300 µM on NR1A/2C NMDA receptor (setting [2]) and 8 µM on NR1A/2B NMDA receptor (setting [3]).
Regarding `CC(O)CCN1CCC(Cc2ccc(N)cc2)CC1` (stereo not drawn) [Ex. 105, 4-(4-aminobenzyl)-1-(3-hydroxy-butyl) piperidine hydrochloride], the IC50 at NR1A/2A NMDA receptor (setting [1]) is 120 µM; on NR1A/2C NMDA receptor (setting [2]) it was greater than 300 µM; at NR1A/2B NMDA receptor (setting [3]), 17 µM.
